In one data set the target is hNET (Homo sapiens, UniProt P23975). Kind of data set: hNET binding according to Mahaney et al. The conditions noted are these: printed in the Protocol B column with footnote.
Data set [1] can be described thus: Rat liver microsomal stability assay. In kind it is in vitro ADME. The note with it: pH 7.4; rat liver microsomes, 37° C., NADPH; read-out: RLM stability t1/2.
Data set [2] deals with Dopamine Transporter (hDAT) (Homo sapiens, UniProt Q01959). Briefly: Dopamine transporter (hDAT) membrane binding assay, [3H]-WIN 35,428.
Data set [3] addresses human norepinephrine transporter (hNET) (Homo sapiens, UniProt P23975). Briefly: hNET uptake, Protocol B: cell based norepinephrine reuptake assay using recombinant hNET (MDCK-Net6 cells). The note with it: hNET Function IC50 (nM), protocol not stated.

Where a name gives a salt, the structure may show the parent alone.

Chain of human norepinephrine transporter (hNET) (P23975 whole entry): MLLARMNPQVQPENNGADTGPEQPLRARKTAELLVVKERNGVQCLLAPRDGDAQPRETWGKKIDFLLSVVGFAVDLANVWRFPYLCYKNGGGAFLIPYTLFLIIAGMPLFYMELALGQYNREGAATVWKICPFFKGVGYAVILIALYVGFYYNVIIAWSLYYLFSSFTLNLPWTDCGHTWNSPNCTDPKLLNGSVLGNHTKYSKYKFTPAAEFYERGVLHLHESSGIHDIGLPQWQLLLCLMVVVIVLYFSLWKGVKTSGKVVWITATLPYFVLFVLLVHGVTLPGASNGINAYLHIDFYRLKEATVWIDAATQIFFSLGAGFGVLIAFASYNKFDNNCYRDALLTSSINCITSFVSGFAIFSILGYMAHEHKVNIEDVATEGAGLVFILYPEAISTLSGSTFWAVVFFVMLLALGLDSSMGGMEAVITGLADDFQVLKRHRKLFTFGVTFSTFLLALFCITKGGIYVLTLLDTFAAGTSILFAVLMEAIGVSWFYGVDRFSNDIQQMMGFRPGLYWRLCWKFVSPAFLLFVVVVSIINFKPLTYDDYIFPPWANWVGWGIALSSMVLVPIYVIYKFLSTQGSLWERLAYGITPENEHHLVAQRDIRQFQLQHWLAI
Chain of Dopamine Transporter (hDAT) (Q01959 whole entry): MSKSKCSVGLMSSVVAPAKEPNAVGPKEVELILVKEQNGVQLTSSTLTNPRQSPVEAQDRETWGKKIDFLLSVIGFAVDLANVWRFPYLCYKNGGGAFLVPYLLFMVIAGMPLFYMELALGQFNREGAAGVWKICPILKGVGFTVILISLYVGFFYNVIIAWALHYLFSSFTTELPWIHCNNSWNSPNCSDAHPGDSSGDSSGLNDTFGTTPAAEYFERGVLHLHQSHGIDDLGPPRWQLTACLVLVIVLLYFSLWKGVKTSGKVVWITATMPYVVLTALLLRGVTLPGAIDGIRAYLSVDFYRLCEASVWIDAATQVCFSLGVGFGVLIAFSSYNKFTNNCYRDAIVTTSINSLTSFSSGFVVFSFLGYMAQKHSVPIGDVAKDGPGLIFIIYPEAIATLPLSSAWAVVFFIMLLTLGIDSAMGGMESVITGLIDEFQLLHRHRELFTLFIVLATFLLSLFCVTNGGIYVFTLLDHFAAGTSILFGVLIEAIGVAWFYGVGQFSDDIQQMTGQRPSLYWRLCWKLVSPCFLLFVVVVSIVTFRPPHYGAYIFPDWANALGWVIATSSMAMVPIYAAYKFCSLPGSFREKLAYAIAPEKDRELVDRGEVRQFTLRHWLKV
Chain of hNET (P23975 whole entry): as the sequence (P23975 whole entry) above

The molecule `NCCCCCN1c2ccccc2N(c2ccc(F)cc2F)S1(=O)=O` [Example 116, 5-[3-(2,4-difluorophenyl)-2,2-dioxido-2,1,3-benzothiadiazol-1(3H)-yl]pentan-1-amine hydrochloride] gave an IC50 on hNET of 0.679 µM.

`CNCCCN1c2ccccc2N(c2cc(F)ccc2F)S1(=O)=O` [drawing 164]: the half-life at 1 µM in data set [1] is 2 min. The figures for the IC50 in data set [2] and in data set [3] were 0.479 µM and 2.7 nM, respectively.

As for `CNCCCN1c2ccccc2N(c2ccc(F)cc2F)S1(=O)=O` [drawing 165], the half-life at 1 µM in data set [1] stood at 10 min. Further, the values for the IC50 in data set [2] and in data set [3] were 0.366 µM and 11.3 nM, respectively.

On to `CNCCCCN1c2ccccc2N(c2ccc(F)cc2)S1(=O)=O` [drawing 167], for which, in data set [1], the half-life at 1 µM was found to be 19 min. Besides, the IC50 came to 0.0528 µM in data set [2] and 46.1 nM in data set [3].

For `CNCCCN1c2ccccc2N(c2ccccc2C)S1(=O)=O` [drawing 168], the half-life at 1 µM in data set [1] was less than 1 min. The IC50 was found to be 0.276 µM in data set [2] and 7.06 nM in data set [3].

Turning to `CNCCCN1c2ccccc2N(c2cccc(OC)c2)S1(=O)=O` [drawing 169], in data set [1], the half-life at 1 µM was determined as 2 min. Moreover, the IC50 in data set [2] came out at 0.178 µM; in data set [3], 10.8 nM.

Turning to `CCNCCCN1c2ccccc2N(c2ccccc2F)S1(=O)=O` [drawing 170], in data set [1], the half-life at 1 µM stood at 1 min. The half-maximal inhibitory concentration (IC50) in data set [2] turned out to be 0.665 µM; in data set [3], 2.56 nM.

For the origin of these results see patent US20080161366A1, “AMINOALKYL SUBSTITUTED ARYL SULFAMIDE DERIVATIVES AND METHODS OF THEIR USE” (Wyeth, priority 2006, published 2008).
